The test system of test [1] is Deinococcus radiodurans. The test is described as follows: Activity of Deinococcus radiodurans homoisocitrate dehydrogenase.
Test [2] concerns Deinococcus radiodurans. Put plainly: Ratio of kcat/km of Deinococcus radiodurans homoisocitrate dehydrogenase.
The test system of test [3] is Deinococcus radiodurans. The test is described as follows: Activity of Deinococcus radiodurans homoisocitrate dehydrogenase above 10 mM.
For test [4], the target named is Homoisocitrate dehydrogenase, mitochondrial (Saccharomyces cerevisiae S288c) (UniProt P40495). The test is described as follows: Activity of recombinant Saccharomyces cerevisiae homoisocitrate dehydrogenase expressed in Escherichia coli Rosetta cells above 10 mM.

The source made the active and inactive calls. No cut-off for these calls is given here.

Chain of Homoisocitrate dehydrogenase, mitochondrial (Saccharomyces cerevisiae S288c) (P40495 whole entry): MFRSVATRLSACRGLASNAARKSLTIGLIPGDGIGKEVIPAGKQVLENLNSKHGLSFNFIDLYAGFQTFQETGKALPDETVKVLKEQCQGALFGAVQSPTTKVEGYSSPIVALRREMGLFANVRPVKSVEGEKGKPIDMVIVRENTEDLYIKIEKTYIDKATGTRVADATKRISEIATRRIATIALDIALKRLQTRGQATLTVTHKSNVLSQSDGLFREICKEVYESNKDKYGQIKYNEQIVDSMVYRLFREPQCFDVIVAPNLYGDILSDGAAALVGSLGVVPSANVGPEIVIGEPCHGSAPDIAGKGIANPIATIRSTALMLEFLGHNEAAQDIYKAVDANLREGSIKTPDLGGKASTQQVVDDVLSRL

On to `O=C(O)CCCC[C@H](C(=O)O)[C@@H](O)C(=O)O`, for which, in test [1], the Km (commonly the substrate concentration at which the rate is half of its maximum) came to 140 µM and the kcat (commonly the maximal rate divided by the concentration of active sites) came to 40 s⁻¹. The kcat/Km – broadly, the turnover number divided by the Michaelis constant – in test [2] is 290000 M⁻¹ s⁻¹.

In the case of `O=C(O)[C@@H](CCCO)[C@@H](O)C(=O)O`, in test [1], the Km was 510 µM and the kcat stood at 29 s⁻¹. In addition, the kcat/Km in test [2] was determined as 200000 M⁻¹ s⁻¹.

As to `O=C(O)[C@H](O)[C@@H](C(=O)O)c1ccccc1`, the outcome in test [3] and in test [4] was inactive.

With `O=C(O)[C@@H](O)[C@@H](O)C(=O)O`, the result in test [3] and in test [4] was inactive.

As to `O=C(O)[C@@H](CCCCO)[C@@H](O)C(=O)O`, in test [1], the Km came out at 470 µM and the kcat amounted to 28 s⁻¹. Moreover, the kcat/Km in test [2] amounted to 60000 M⁻¹ s⁻¹.

As for `C=CC[C@H](C(=O)O)[C@@H](O)C(=O)O`, in test [1], the Km was determined as 2800 µM and the kcat is 37 s⁻¹. Also, the kcat/Km in test [2] amounted to 13000 M⁻¹ s⁻¹.

Take `CC[C@H](C(=O)O)[C@@H](O)C(=O)O`: in test [1], the Km came out at 1000 µM and the kcat stood at 43 s⁻¹. Moreover, the kcat/Km in test [2] is 430000 M⁻¹ s⁻¹.

As for `NCCC[C@H](C(=O)O)[C@@H](O)C(=O)O`, the outcome in test [3] and in test [4] was inactive.

Consider `C[C@H](C(=O)O)[C@@H](O)C(=O)O`, for which, in test [1], the Km was determined as 3600 µM and the kcat came to 19 s⁻¹. Further, in test [2], the kcat/Km turned out to be 5300 M⁻¹ s⁻¹.

Turning to `O=C(O)C[C@@H](O)C(=O)O`, the result in test [3] and in test [4] was inactive.

Consider `CCC[C@H](C(=O)O)[C@@H](O)C(=O)O`, for which, in test [1], the Km was 780 µM and the kcat is 53 s⁻¹. In addition, in test [2], the kcat/Km is 68000 M⁻¹ s⁻¹.

Turning to `O=C(O)CCC[C@H](C(=O)O)[C@@H](O)C(=O)O`, in test [1], the Km turned out to be 200 µM and the kcat was found to be 40 s⁻¹. In test [2], the kcat/Km was found to be 200000 M⁻¹ s⁻¹.

Regarding `O=C(O)C[C@H](C(=O)O)[C@@H](O)C(=O)O`, the result in test [4] was inactive.

As to `C=C[C@H](C(=O)O)[C@@H](O)C(=O)O`, in test [1], the Km turned out to be 83 µM and the kcat is 0.77 s⁻¹. Besides, the kcat/Km in test [2] came out at 9300 M⁻¹ s⁻¹.

In the case of `CCCCC[C@H](C(=O)O)[C@@H](O)C(=O)O`, in test [1], the Km worked out at 3200 µM and the kcat was 3.7 s⁻¹. Also, the kcat/Km in test [2] was 1200 M⁻¹ s⁻¹.

Take `CC(C)[C@H](C(=O)O)[C@@H](O)C(=O)O`: the outcome in test [4] was inactive.

For `O=C(O)[C@@H](CCO)[C@@H](O)C(=O)O`, in test [1], the Km is 590 µM and the catalytic constant (kcat) was found to be 25 s⁻¹. Besides, in test [2], the kcat/Km amounted to 42000 M⁻¹ s⁻¹.

On to `C=CCCC[C@H](C(=O)O)[C@@H](O)C(=O)O`, for which, in test [1], the Km stood at 2700 µM and the kcat came to 3 s⁻¹. Besides, the kcat/Km in test [2] was 1100 M⁻¹ s⁻¹.
